Results: US20240115557A1, “INHIBITORS OF RNA-GUIDED NUCLEASES AND USES THEREOF” (The Brigham and Women's Hospital, Inc., priority 2022, published 2024)

Columns and labels:
[1] = test system: LbCas12a; test: eGFP disruption assay, LbCas12a RNP; assay type: cell-based; conditions: RNP delivery, U2OS.eGFP.PEST, 24 h
[2] = target: SpCas9 (Streptococcus pyogenes serotype M1, UniProt Q99ZW2); test: HiBiT knock-in assay, SpCas9, HEK293T cells; assay type: cell-based
Text: Primary and secondary screening. The primary screen assayed a selection of unique chemical scaffolds derived from commercially available compounds and known bioactive molecular libraries (Table 7). Auto-fluorescent compounds were removed by a counter screen. Overall, the CAA was used to assay 122,409 small molecules with over 2,500 unique chemical scaffolds (FIG. 64F, Table 7). Of these compounds, 547 were selected as hits (Z score >3 in both replicates) for testing in orthogonal cell-based secondary assays. Hits were tested in duplicate in an eGFP disruption assay, wherein U2OS.eGFP.PEST cells^33 transfected with SpCas9 plasmid and eGFP-targeting gRNA plasmid were incubated with 20 μM of the compounds. In this assay, any compound that inhibited SpCas9 would rescue the loss of eGFP fluorescence. Here, toxic and auto-fluorescent compounds with a high GFP signal in cells were removed as false positives. […] Next, Applicants tested the 15 compounds in a luminescence-based gain-of-signal HiBiT knock-in assay, which involves SpCas9-mediated homology-directed tagging of GAPDH with a short peptide that luminesces upon complementation with a subunit derived from nanoluciferase.^34 Complementarily, the eGFP-disruption assay is fluorescence-based and involves error-prone DNA repair. As a counter-screen to remove false positives caused by cell death (viability <80%), the cell viability was measured after incubation.
Approximately 400,000 HEK293T cells were nucleofected with 400 ng of SpCas9 plasmid, 40 ng of GAPDH-targeting gRNA plasmid, and 40 pmol of single-strand oligodeoxynucleotide (ssODN) using SF Cell Line 4D-Nucleofector X Kit (Lonza) following the pulse program of DS-150. For RNP-based genome editing, 10 pmol of Cas9 and 12 pmol of gRNA were mixed and incubated for 5 min. Then, 20 pmol of ssODN was added. Cells were nucleofected with the resulting mixture using the same pulse program. Cells were then transferred to a 96-well plate at the density of 35,000 cells per well, and incubated with indicated amount of compounds for 24 h. Cell viability was measured using PrestoBlue reagent (Thermo) with a SpectraMax M5 (Molecular Devices) at the excitation and emission wavelength of 544 nm and 590 nm, respectively. Next, luminescence measurement was performed using the Nano-Glo HiBiT Lytic Detection System (Promega) according to the manufacturer's protocol with an EnVision Multilabel Plate Reader (PerkinElmer) at the integration time of 0.5 s per well. The resulting luminescence signals were normalized based on the cell viability.^34

[3] = test system: U2OS.eGFP.PEST cells; test: eGFP fluorescence counter assay in absence of SpCas9:gRNA; assay type: cell-based, human
Procedure: FIG. 73A-73E Counter assays to validate BRD7586 in cells FIG. 73A,B Immunoblotting analysis of SpCas9 expression in (A) HEK293T cells or (B) U20S.eGFP.PEST cells transfected with SpCas9 plasmid were incubated with BRD7586 for 24 h (n=2 or 3 independent experiments). p>0.05 for BRD7586 at […] compared to DMSO in U20S.eGFP.PEST cells (paired t test, two-tailed) FIG. 73C Changes in the fluorescence intensity in the presence of BRD7586 in U20S.eGFP.PEST. Cells were treated with the compound for 24 h, and the fluorescence was measured to calculate the fraction of GFP-positive populations. Means from 3 independent experiments are shown. […] Error bars represent SD from 3 independent experiments. For SpCas9, p≤0.01 for BRD7586 at 15 μM compared to DMSO. For LbCas12a, p>0.05 for BRD7586 at 15 μM compared to DMSO in all experiments (unpaired t test, two-tailed).

SpCas9, sequence (Q99ZW2 whole entry): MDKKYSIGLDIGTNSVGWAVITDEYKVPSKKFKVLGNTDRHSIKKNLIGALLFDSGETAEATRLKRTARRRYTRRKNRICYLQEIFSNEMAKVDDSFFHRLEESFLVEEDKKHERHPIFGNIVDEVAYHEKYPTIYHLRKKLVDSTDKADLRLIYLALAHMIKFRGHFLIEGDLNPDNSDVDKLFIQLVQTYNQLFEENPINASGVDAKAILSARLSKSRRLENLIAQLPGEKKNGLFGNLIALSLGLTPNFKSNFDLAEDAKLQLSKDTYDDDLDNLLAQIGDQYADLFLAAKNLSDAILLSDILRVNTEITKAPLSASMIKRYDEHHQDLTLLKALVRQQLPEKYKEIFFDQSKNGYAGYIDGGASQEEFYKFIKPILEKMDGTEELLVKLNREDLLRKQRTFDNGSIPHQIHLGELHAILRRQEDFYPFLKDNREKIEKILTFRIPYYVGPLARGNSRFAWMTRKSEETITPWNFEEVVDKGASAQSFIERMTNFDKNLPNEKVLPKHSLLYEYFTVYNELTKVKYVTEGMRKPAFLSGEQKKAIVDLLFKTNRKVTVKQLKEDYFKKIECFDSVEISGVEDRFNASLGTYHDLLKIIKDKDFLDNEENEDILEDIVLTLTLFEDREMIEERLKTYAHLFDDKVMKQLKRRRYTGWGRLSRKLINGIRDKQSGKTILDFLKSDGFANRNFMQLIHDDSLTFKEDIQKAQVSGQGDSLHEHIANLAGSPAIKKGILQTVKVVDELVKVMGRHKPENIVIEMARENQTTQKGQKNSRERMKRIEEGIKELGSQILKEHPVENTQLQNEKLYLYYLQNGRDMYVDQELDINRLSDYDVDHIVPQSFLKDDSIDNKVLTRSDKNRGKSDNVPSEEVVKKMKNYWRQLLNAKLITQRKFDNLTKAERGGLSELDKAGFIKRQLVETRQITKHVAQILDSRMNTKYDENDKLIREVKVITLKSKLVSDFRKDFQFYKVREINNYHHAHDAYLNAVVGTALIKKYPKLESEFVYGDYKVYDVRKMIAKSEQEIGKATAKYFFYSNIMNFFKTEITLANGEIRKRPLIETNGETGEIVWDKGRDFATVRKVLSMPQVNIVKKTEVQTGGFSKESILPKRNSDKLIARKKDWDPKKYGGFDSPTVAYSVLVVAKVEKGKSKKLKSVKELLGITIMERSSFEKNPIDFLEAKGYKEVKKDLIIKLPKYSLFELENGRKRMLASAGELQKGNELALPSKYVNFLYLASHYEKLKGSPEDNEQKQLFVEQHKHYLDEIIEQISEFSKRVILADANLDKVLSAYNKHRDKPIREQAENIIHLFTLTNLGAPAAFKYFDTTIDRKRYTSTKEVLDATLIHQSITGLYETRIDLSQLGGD

O=C(CCS(=O)(=O)c1ccc(Cl)cc1)Nc1nc(-c2ccncc2)cs1 [BRD7586]
Effect on activity of LbCas12a [1]: did not affect the activity | EC50 ([2]; EC50 in HiBit knockin assay, HEK293T, SpCas9 plasmid, sgRNA plasmid and ssODN, 0.06 uM to 20 uM, 24 h (FIG. 44D)): 5.04 µM | EC50 ([2]; EC50 in the HiBiT knock-in assay, from three independent experiments): 5.7 ± 0.36 µM | Effect on eGFP expression in the absence of SpCas9:gRNA [3]: without affecting the eGFP expression
